The record followed here is DBAASP.

Some test systems named below: Escherichia coli E423-17; Pseudomonas aeruginosa; Bacillus subtilis 168; Candida krusei CK802/97; Escherichia coli B; Staphylococcus aureus; Proteus mirabilis; Bacillus thuringiensis; Staphylococcus sp.; Escherichia coli AB94012.
Assay in all cases: ≥ marks a high value that may be exact or a test limit, other limits are often not marked, values filed in µg/mL are converted to µM
For experiment [1], the system named is Pseudomonas aeruginosa PAO1.
The test system of experiment [2] is Staphylococcus aureus USA 300 LAC.
For experiment [3], the system named is Pseudomonas aeruginosa ATCC 19660.
The subject of experiment [4] is Escherichia coli ATCC 25922.
Experiment [5] relates to Pseudomonas aeruginosa CUN 4158-02.
Experiment [6] deals with Bordetella bronchiseptica CUN 11844-99.
Experiment [7] has as its system Staphylococcus aureus ATCC 43300.
For experiment [8], the system named is Staphylococcus aureus ATCC 25923.
In experiment [9] the test system is Pseudomonas aeruginosa ATCC 27853.
Experiment [10] relates to Staphylococcus aureus CUN 3792-99.
The test system of experiment [11] is Stenotrophomonas maltophilia CUN 3998-00.
In experiment [12] the test system is Acinetobacter baumannii ATCC 19606.
In experiment [13] the test system is Candida glabrata CG196/98IDE.
Experiment [14] deals with Pseudomonas aeruginosa ATCC 15442.
For experiment [15], the system named is Staphylococcus aureus ATCC 25293.
Experiment [16] deals with Escherichia coli CCT 1371.
For experiment [17], the system named is Salmonella enterica subsp. enterica serovar Typhimurium ATCC 14028.
Experiment [18] deals with Candida albicans ATCC 18804.
For experiment [19], the system named is Staphylococcus aureus ATCC 6538.
Experiment [20] has as its system Bacillus subtilis CCT 2471.
Experiment [21] concerns Staphylococcus saprophyticus.
Experiment [22] has as its system Staphylococcus aureus ATCC 29213.
Experiment [23] relates to Klebsiella aerogenes ATCC 13048.
Experiment [24] concerns Bacillus cereus ATCC 11778.
The subject of experiment [25] is Staphylococcus aureus AB94004.
In experiment [26] the test system is Bacillus subtilis AB91021.
The test system of experiment [27] is Pseudomonas aeruginosa AB93066.
In experiment [28] the test system is Bacillus thuringiensis AB92037.
For experiment [29], the system named is Bacillus subtilis ATCC 6633.
Experiment [30] relates to Micrococcus luteus ATCC 10240.
Experiment [31] has as its system Staphylococcus epidermidis ATCC 12228.
Experiment [32] relates to Staphylococcus aureus ATCC 6538P.
Experiment [33] relates to Klebsiella pneumoniae ATCC 10031.
Experiment [34] concerns Staphylococcus aureus TK784.
Experiment [35] deals with Shigella dysenteriae ATCC 9752.

≈ marks a conversion by molar mass, not a printed value. Where “and” joins values, the source holds several entries; their conditions need not be identical. Equal entries are not always repeated.

The MIC is the smallest concentration in the dilution series that meets the test's criterion for growth inhibition. High values mean a less susceptible organism, low ones a more susceptible organism. With `CC[C@H](C)[C@H](NC(=O)[C@H](CCCNC(=N)N)NC(=O)[C@H](CCC(N)=O)NC(=O)[C@@H](NC(=O)[C@@H](NC(=O)[C@H](CCCNC(=N)N)NC(=O)[C@H](CCCCN)NC(=O)[C@@H](N)Cc1ccccc1)[C@@H](C)CC)C(C)C)C(=O)N[C@@H](CCCCN)C(=O)N[C@@H](CC(=O)O)C(=O)N[C@@H](Cc1ccccc1)C(=O)N[C@@H](CC(C)C)C(=O)N[C@@H](CCCNC(=N)N)C(=O)N[C@@H](CC(N)=O)C(=O)N[C@@H](CC(C)C)C(=O)N[C@H](C=O)C(C)C` [FKRIVQRIKDFLRNLV], the MIC was 48.9 µM and 97.7 µM in experiment [1]; 5.66 µM and 4 µM against Escherichia coli E423-17; 4 µM (≈ 8.12 µg/mL) in experiment [2]; 48.9 µM and 97.7 µM with Pseudomonas aeruginosa; no less than 97.7 µM in experiment [3].

For the compound `NCCCC[C@H](NC(=O)CNC(=O)[C@H](CCCCN)NC(=O)[C@H](Cc1ccccc1)NC(=O)[C@H](CCCCN)NC(=O)[C@H](Cc1c[nH]c2ccccc12)NC(=O)[C@H](CCCN=C(N)N)NC(=O)[C@H](Cc1ccccc1)NC(=O)[C@H](CCCN=C(N)N)NC(=O)[C@H](CCCN=C(N)N)NC(=O)[C@H](Cc1ccc(O)cc1)NC(=O)[C@H](CCCCN)NC(=O)[C@H](CCCCN)NC(=O)[C@H](CS)NC(=O)CN)C(=O)N[C@@H](Cc1ccccc1)C(=O)N[C@@H](Cc1c[nH]c2ccccc12)C(=O)N[C@@H](Cc1ccccc1)C(=O)N[C@@H](Cc1c[nH]c2ccccc12)C(N)=O` [GCKKYRRFRWKFKGKFWFW], the minimal inhibitory concentration (MIC) was 24.1 µM (≈ 64 µg/mL) in [4]; no less than 48.2 µM in experiment [5]; 24.1 µM (≈ 64 µg/mL) in experiment [6]; 12.1 µM (≈ 32 µg/mL) in [7]; 24.1 µM (≈ 64 µg/mL) in experiment [8]; 24.1 µM (≈ 64 µg/mL) in experiment [9]. In addition, the MIC is 24.1 µM (≈ 64 µg/mL) in [10], no less than 48.2 µM in experiment [11] and 24.1 µM (≈ 64 µg/mL) in experiment [12].

Turning to `CC[C@H](C)[C@H](NC(=O)[C@H](CC(C)C)NC(=O)[C@H](CCCCN)NC(=O)CNC(=O)[C@H](CC(C)C)NC(=O)[C@@H](NC(=O)[C@H](CCCCN)NC(=O)[C@H](CCCCN)NC(=O)[C@H](Cc1c[nH]c2ccccc12)NC(=O)[C@H](CCSC)NC(=O)CN)[C@@H](C)CC)C(=O)N[C@@H](CCCN=C(N)N)C(N)=O` [GMWKKILGKLIR], the MIC was 0.8 µM (≈ 1.15 µg/mL) in the experiment with Bacillus subtilis 168; 28 µM and 13 µM against Candida krusei CK802/97; no less than 87 µM in experiment [13]; 2.3 µM (≈ 3.32 µg/mL) against Escherichia coli B; 13.1 µM (≈ 18.9 µg/mL) in the experiment on Pseudomonas aeruginosa; 15 µM (≈ 21.6 µg/mL) in the experiment with Staphylococcus aureus.

In the case of `CC[C@H](C)[C@H](N)C(=O)N[C@@H](Cc1ccccc1)C(=O)NCC(=O)N[C@@H](C)C(=O)N[C@H](C(=O)N[C@@H](Cc1c[nH]c2ccccc12)C(=O)N[C@@H](CC(N)=O)C(=O)NCC(=O)N[C@H](C(=O)N[C@@H](CCCCN)C(=O)N[C@@H](CO)C(=O)N[C@@H](CC(C)C)C(=O)N[C@@H](Cc1ccccc1)C(=O)O)[C@@H](C)CC)[C@@H](C)CC` [IFGAIWNGIKSLF], the MIC in [14] is no less than 150 µM; in [15] it was 0.7 µM (≈ 1.03 µg/mL); in experiment [16], 3.4 µM (≈ 4.98 µg/mL); in experiment [17] it was 68.2 µM (≈ 100 µg/mL); against Proteus mirabilis, no less than 150 µM; in [9] it was 68.3 µM (≈ 100 µg/mL). The minimal inhibitory concentration (MIC) in experiment [18] turned out to be 12.5 µM (≈ 18.3 µg/mL); in experiment [19], 3.4 µM (≈ 4.98 µg/mL); in [20], 6.8 µM (≈ 9.97 µg/mL); in experiment [21] it was 0.7 µM (≈ 1.03 µg/mL); with Bacillus thuringiensis, 17.1 µM (≈ 25.1 µg/mL); in experiment [22], 34.1 µM (≈ 50 µg/mL). Further, the MIC in experiment [23] and in [24] was no less than 68.2 µM throughout.

Turning to `CC[C@H](C)[C@H](NC(=O)[C@H](CC(C)C)NC(=O)[C@H](CO)NC(=O)[C@@H]1CCCN1C(=O)[C@@H](NC(=O)[C@H](CC(C)C)NC(=O)CNC(=O)[C@H](Cc1ccccc1)NC(=O)[C@@H](N)CC(C)C)[C@@H](C)CC)C(=O)NCC(=O)NCC(=O)N[C@@H](CC(C)C)C(=O)N[C@H](C(=O)N[C@@H](CO)C(=O)N[C@@H](C)C(=O)N[C@@H](Cc1ccccc1)C(=O)N[C@@H](CCCCN)C(N)=O)C(C)C` [LFGLIPSLIGGLVSAFK], the MIC in [25] is 14.4 µM (≈ 25 µg/mL); with Staphylococcus sp., 14.4 µM (≈ 25 µg/mL); against Escherichia coli AB94012, no less than 57.7 µM; in [26], 28.9 µM (≈ 50 µg/mL); in experiment [27], no less than 57.7 µM; in experiment [28], 14.4 µM (≈ 25 µg/mL).

`CC(C)C[C@H](NC(=O)[C@H](CC(C)C)NC(=O)[C@H](CCCCN)NC(=O)[C@H](CCCCN)NC(=O)[C@H](CC(C)C)NC(=O)[C@H](CC(C)C)NC(=O)[C@H](CCCCN)NC(=O)[C@H](CCCCN)NC(=O)[C@@H](N)CC(C)C)C(=O)N[C@@H](CCCCN)C(=O)N[C@@H](Cc1c[nH]c2ccccc12)C(N)=O` [LKKLLKKLLKW]: the minimal inhibitory concentration (MIC) in [4] was 2.84 µM (≈ 4 µg/mL); in [29] it was 1.42 µM (≈ 2 µg/mL); in experiment [17] it was 2.84 µM (≈ 4 µg/mL); in [30], 2.84 µM (≈ 4 µg/mL); in [31], 1.42 µM (≈ 2 µg/mL); in [32] it was 1.42 µM (≈ 2 µg/mL). The MIC in experiment [9] is 2.84 µM (≈ 4 µg/mL); in experiment [33] it was 2.84 µM (≈ 4 µg/mL); in [34] it was 11.3 µM (≈ 16 µg/mL); in [35], 1.42 µM (≈ 2 µg/mL).
